Test results reported in patent US9974761B2, “Medications for deposition on biological surfaces” (The Procter & Gamble Company, priority 2014, dated 2018).

Assays:
[1] = Sensation reported by panelists; format: in vivo; details: perceived sensation, in words
human TRPM8 = target: T1, human TRPM8; assay: TRPM8 Protocol-FLIPR Assay (intracellular Ca2+); format: cell-based; details: for TRPM8 Time Course Activity 5 min % of WS5 / TRPM8 Time Course Activity 10 min % of WS5: dose 12.2 nM, vs 30 uM WS-5
T1 construct: Receptor Activity TRPM8; Receptor Activity TRPM8; other: test compound at 0.001%; relative to WS5 control (30 microMolar); HEK 293 cells; other: test compound at 0.004%; other: test compound at 5.2E−5%; relative to WS5 control
Protocol: To determine whether TRPM8 is activated, the intracellular calcium ion (Ca^2+) level was measured from transfected cells with the TRPM8 receptor sequence (SEQ ID NO: 3). HEK-293 (human embryonic kidney) cells stably transfected with human TRPM8 were grown in 15 ml growth medium (high glucose DMEM (Dulbecco's Modification of Eagle's Medium) supplemented with 10% FBS (fetal bovine serum), 100 ug/ml penicillin/streptomycin, 5 μg/ml blasticindin, and 100 μg/ml zeocin) in a 75 cm^2 flask for 3 days at 37° C. in a mammalian cell culture incubator set at 5% CO2 Cells were detached with addition of 2 ml of trypsin-EDTA buffer (GIBCO® 25200, Invitrogen, Grand Island, N.Y.) for about 2-3 min. Trypsin was inactivated by addition of 8 ml growth medium. Cells were transferred to a 50 ml tube and centrifuged at 850 rpm for 3 minutes to remove medium. After centrifugation, a pellet of cells was formed in the bottom of the tube separating them from the supernatant solution. The supernatant was discarded and the cell pellet was suspended in 1 ml of fresh growth medium to which 5 μl (12.5 μg) of Fluo-4 AM (Molecular Probes, Inc., Eugene, Oreg.) calcium indicator was added and incubated for 30 min with gentle shaking. Fluo-4 AM is a fluorescent dye used for quantifying cellular Ca^2+ concentrations in the 100 nM to 1 microM range. At the end of 30 minutes, 45 ml of assay buffer (1× HBSS (Hank's Balanced Salt Solution), 20 mM HEPES (4-(2-Hydroxyethyl)-1-piperazineethanesulfonic acid)) was added to wash cells and the resulting mixture was then centrifuged at 850 rpm for 3 minutes to remove excess buffer and Fluo-4 AM calcium indicator.
The pelleted cells were re-suspended in 10 ml assay buffer and 90 μl aliquots (˜50,000 cells) per well delivered to a 96-well assay plate containing 10 μl of test compounds (1 mM in assay buffer, […]) or buffer control and incubated at room temperature for 30 minutes. After 30 minutes, a plate was placed into a fluorometric imaging plate reader (FLIPR384 from Molecular Devices, Sunnyvale, Calif.) and basal fluorescence recorded (excitation wave length 488 nm and emission wave length 510 nm). Then 20 μl of […] of TRPM8 agonist WS5 coolant in the assay buffer was added and fluorescence recorded. For determining the direct effect of test compounds on TRPM8, fluorescence was measured immediately after addition of each compound (TABLES 2 and 3). Additional discussion of the FLIPR method can be found in Smart et al., Characterization using FLIPR of human vanilloid VR1 receptor pharmacology, European Journal of Pharmacology 417, 51-58 (2001) and Liu et al., Development and validation of a platelet calcium flux assay using a fluorescent imaging plate reader, Analytical Biochemistry 357, 216-224 (2006).
TRPM8 activation was determined by measuring intracellular calcium ion (Ca^2+) level from transfected cells with the TRPM8 receptor gene, as described in EXAMPLE 1, the results of which are shown in TABLES 4 and 5.

Row | SMILES | sensation (cooling, warming, burning) [1] | EC50 (human TRPM8; 3 min) [nM] | EC50 (human TRPM8; 5 min) [nM] | EC50 (human TRPM8; 10 min) [nM] | TRPM8 Time Course Activity 5 min % of WS5 (human TRPM8; 5 min) [%] | TRPM8 Time Course Activity 10 min % of WS5 (human TRPM8; 10 min) [%]
1 | CC(C)[C@@H]1CC[C@@H](C)C[C@H]1C(=O)NCC(NC(=O)[C@@H](C)N)c1ccccc1 (single isomer, unassigned) [Compound 28 fraction 2] | did not provide a cooling response | 55.5 | 45.7 | 37.4 | 65.7 | 71.1
2 | CC(C)[C@@H]1CC[C@@H](C)C[C@H]1C(=O)NCC(NC(=O)[C@@H](C)N)c1ccccc1 (single isomer, unassigned) [Compound 28 fraction 1] | intense cooling | 1.48 |  |  | 103.8 | 115.5
